What all share (format): cell-based
Experiment [1] addresses T1, TLR7 (Homo sapiens, UniProt Q9NYK1).
T1 sequence (Q9NYK1 27-1049): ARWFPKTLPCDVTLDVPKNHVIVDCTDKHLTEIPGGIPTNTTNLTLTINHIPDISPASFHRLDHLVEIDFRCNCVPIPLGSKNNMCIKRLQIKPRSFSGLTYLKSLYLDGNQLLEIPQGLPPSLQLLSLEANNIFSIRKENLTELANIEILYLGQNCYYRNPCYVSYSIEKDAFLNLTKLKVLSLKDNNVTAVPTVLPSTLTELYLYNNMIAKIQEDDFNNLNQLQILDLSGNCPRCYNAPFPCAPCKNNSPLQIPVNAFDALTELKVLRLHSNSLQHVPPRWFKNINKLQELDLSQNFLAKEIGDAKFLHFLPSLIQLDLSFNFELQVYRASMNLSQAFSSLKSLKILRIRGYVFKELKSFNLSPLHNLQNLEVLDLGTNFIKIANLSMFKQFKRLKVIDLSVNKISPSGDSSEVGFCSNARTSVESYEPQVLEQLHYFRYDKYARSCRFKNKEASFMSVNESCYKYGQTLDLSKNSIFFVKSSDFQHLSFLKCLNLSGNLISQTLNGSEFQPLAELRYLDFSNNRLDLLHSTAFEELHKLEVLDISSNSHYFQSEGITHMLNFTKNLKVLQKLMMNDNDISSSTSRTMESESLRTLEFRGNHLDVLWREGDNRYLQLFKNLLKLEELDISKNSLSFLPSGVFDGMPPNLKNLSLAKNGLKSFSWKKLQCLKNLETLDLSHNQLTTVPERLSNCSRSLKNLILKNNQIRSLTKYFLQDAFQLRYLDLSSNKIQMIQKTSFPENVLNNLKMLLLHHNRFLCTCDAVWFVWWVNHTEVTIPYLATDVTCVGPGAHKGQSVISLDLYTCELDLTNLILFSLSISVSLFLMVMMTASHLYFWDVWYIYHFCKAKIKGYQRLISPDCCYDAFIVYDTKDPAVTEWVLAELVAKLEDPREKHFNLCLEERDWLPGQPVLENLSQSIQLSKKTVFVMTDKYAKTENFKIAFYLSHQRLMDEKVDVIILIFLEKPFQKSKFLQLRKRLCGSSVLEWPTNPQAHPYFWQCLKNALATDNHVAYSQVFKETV
Put plainly: TLR7 activity, MC50 values (procedure only by reference to Gorden et al. and Zhu et al.). To be noted: assay format not given. From the text: (§1) Activity of the compounds can be assessed according to procedures described in, e.g., Gorden et al., Journal of Immunology 177, pp. 8164-8170 (2006) and Zhu et al., Molecular Immunology, vol. 45 (11), pp. 3238-3242 (2008).
MC50 values for TLR7 activity are, for example, as shown below: […]

Experiment [2] addresses T1, TLR7. Put plainly: PBMC assay for TLR7 (IFNα in supernatants by ELISA). More on the design: Peripheral blood mononuclear cells (PBMCs) from human blood were isolated; endogenous in cells; host or cells: human PBMCs. To be noted: human PBMCs incubated with compound overnight, MC50 = concentration at which 50% of the maximum induction is seen. The procedure: Peripheral blood mononuclear cells (PBMCs) from human blood were isolated using BD Vacutainer Cell Preparation Tubes with sodium citrate. Cells were incubated with compound overnight. TLR8 activity was assayed by measuring the amount of TNFα in supernatants by ELISA. TLR7 activity was assayed by measuring the amount of IFNα in supernatants by ELISA (R&D Systems). […] The results of this assay are shown below in Tables 2 and 3.
MC50 numbers are represented as factors of ten, for example, + indicates an MC50 value of ×10^4, or a value in the tens of thousands of nanomolar (nM range); ++ indicates an MC50 value of ×10^3, or a value in the thousands; +++ indicates an MC50 value of ×10^2, or a value in the hundreds; and ++++ indicates an MC50 value of ×10^1 or 10°, or a value in the tens or ones.

In experiment [3] the target is T2, TLR8 (Homo sapiens, UniProt Q9NR97).
T2 sequence (Q9NR97 27-1041): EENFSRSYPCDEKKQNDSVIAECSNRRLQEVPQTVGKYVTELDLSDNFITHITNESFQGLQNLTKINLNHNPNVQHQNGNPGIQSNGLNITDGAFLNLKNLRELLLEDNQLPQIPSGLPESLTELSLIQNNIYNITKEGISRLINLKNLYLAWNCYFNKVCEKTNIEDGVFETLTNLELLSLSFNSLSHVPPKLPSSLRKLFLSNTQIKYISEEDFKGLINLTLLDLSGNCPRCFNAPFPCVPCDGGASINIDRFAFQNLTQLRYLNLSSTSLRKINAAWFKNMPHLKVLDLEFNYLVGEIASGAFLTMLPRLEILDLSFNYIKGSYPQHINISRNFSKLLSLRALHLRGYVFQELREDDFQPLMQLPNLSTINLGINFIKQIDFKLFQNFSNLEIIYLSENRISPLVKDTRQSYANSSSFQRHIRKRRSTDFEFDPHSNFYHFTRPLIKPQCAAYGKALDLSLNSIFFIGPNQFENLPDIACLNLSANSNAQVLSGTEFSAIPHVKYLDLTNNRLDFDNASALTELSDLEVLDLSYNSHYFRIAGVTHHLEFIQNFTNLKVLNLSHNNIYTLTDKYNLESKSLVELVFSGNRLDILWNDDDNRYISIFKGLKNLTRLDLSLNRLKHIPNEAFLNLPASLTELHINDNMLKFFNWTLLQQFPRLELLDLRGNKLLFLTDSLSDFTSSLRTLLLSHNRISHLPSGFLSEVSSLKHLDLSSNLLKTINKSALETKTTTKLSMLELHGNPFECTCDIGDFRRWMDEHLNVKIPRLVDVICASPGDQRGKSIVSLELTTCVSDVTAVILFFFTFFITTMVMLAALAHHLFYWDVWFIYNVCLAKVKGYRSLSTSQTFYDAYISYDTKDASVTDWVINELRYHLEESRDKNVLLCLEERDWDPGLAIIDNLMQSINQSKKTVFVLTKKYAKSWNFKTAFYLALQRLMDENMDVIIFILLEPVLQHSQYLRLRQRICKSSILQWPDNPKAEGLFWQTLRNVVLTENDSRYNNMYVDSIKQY
Put plainly: PBMC assay for TLR8 (TNFα in supernatants by ELISA). More on the design: Peripheral blood mononuclear cells (PBMCs) from human blood were isolated; endogenous in cells; host or cells: human PBMCs. To be noted: human PBMCs incubated with compound overnight, MC50 = concentration at which 50% of the maximum induction is seen. The essentials: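 Human PBMCs were incubated overnight with compound. TNFα (TLR8) and IFNα (TLR7) in supernatants were quantified by ELISA. MC50 values are reported in order-of-magnitude bins (nM).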
On the technique in general: ELISA stands for enzyme-linked immunosorbent assay.

For experiment [4], the target named is T2, TLR8. Put plainly: TLR8 activity, MC50 values (procedure only by reference to Gorden et al. and Zhu et al.). To be noted: assay format not given.
Text: as §1
MC50 values for TLR8 activity are, for example, as shown below: […]

As a reminder, the EC50 is the concentration needed to bring the measured effect to its halfway point.

Turning to `CCCN(CCC)C(=O)C1=Cc2ccc(-c3cncnc3)cc2N=C(N)C1` [Compound 135, (1E,4E)-2-amino-N,N-dipropyl-8-(pyrimidin-5-yl)-3H-benzo[b]azepine-4-carboxamide], the figures for the EC50 in experiment [1], in experiment [2] and in experiment [3] were 744 nM, 100 to 1000 nM and 1 to 100 nM, respectively.
For `CCCN(CC(N)=O)C(=O)C1=Cc2ccc(-c3ccc(C(=O)N4CCCC4)cc3)cc2N=C(N)C1` [Compound 178, (1E,4E)-2-amino-N-(2-amino-2-oxoethyl)-N-propyl-8-(4-(pyrrolidine-1-carbonyl)phenyl)-3H-benzo[b]azepine-4-carboxamide], in that order: 767 nM, 100 to 1000 nM and 100 to 1000 nM.
As for `CCCN(CCCO)C(=O)C1=Cc2ccc(-c3ccc(C(=O)OCC)cc3)cc2N=C(N)C1` [Compound 190, Ethyl 4-((1E,4E)-2-amino-4-((3-hydroxypropyl)(propyl)carbamoyl)-3H-benzo[b]azepin-8-yl)benzoate], the concentration for a half-maximal effect (EC50) was 196 nM in experiment [4], 10000 to 100000 nM in experiment [2] and 100 to 1000 nM in experiment [3].

The values are drawn from patent US8524702B2, “Substituted benzoazepines as toll-like receptor modulators” (VentiRx Pharmaceuticals, Inc., priority 2009, dated 2013).
